From patent publication US11007169B2, “Cis-gnetin H and trans-gnetin H as therapeutic agents” (MIDDLE TENNESSEE STATE UNIVERSITY, priority 2014, dated 2021)

What was measured:
[1] = system: U2OS cells (human osteosarcoma); test: Inhibition of cell proliferation, AlamarBlue fluorescent assay, U2OS; assay type: cell-based; settings: 48 hours, cancer cell line
Method: (§1) The cancer cell lines used in this study included human lung carcinoma (A549), human breast carcinoma (BT20 and MCF-7) and human osteosarcoma (U2OS), with the normal cell lines human peripheral lung epithelial cells (HPL1A) and human mammary epithelial cells (HMEC) serving as controls. A549, BT20, MCF-7, U2OS and HMEC cells were purchased from American Type Culture Collection (ATCC, USA), and HPL1A cells were obtained from Nagoya University, Japan. A549 and BT20 were grown in RPMI-1640 (Sigma), MCF-7 was grown in Dulbecco's Modified Eagle Medium (DMEM) (Sigma) supplemented with 0.01 mg/ml human recombinant insulin (Sigma), U2OS and HMEC were grown in McCoy's 5A (ATCC), and HPL1A was grown in DMEM/F-12K (Sigma). The mediums were supplemented with 10% Fetal Bovine Serum (FBS) (Gibco), 1% penicillin and streptomycin and incubated in a humidified atmosphere with 5% CO2 at 37° C.
(§2) The proliferation inhibition potential of cis- and trans-gnetin H was determined by a fluorescence dye staining method. Cells were seeded in a 96-well tissue culture-treated plate (BD Falcon) at a density of 4000 cells/well, and treated with cis- or trans-gnetin H for 48 hours. AlamarBlue dye (Invitrogen) was used to assess the viability of cells according to the manufacturer's instructions; the fluorescent intensity was read on a SpectraMax M2e microplate reader (Molecular Devices Inc.). […]

[2] = system: A549 lung cancer xenografts; test: Xenograft studies, A549 lung tumors in nude mice; assay type: in vivo; settings: 2.4 mg/kg
Method: 14 male nude mice (6 weeks old) were injected subcutaneously on both flanks with 2×10^6 A549 cells. […] Tumor sizes were measured 3 times per week, and volumes were calculated using the formula [length (mm)]×[width (mm)]^2/2 (Warburton et al., Clin. Cancer Res. 2004; 10(7): 2512-2524).

[3] = system: HPL1A cells (human peripheral lung epithelial cells); test: Inhibition of cell proliferation, AlamarBlue fluorescent assay, HPL1A normal control; assay type: cell-based; settings: for inhibitory effects on normal HPL1A cells: 10 uM, up to 48 hours; for IC50: Homo sapiens, HPL1A, 48 hours, AlamarBlue, normal cell line
Method: as §1
(§3) The proliferation inhibition potential of cis- and trans-gnetin H was determined by a fluorescence dye staining method. Cells were seeded in a 96-well tissue culture-treated plate (BD Falcon) at a density of 4000 cells/well, and treated with cis- or trans-gnetin H for 48 hours. AlamarBlue dye (Invitrogen) was used to assess the viability of cells according to the manufacturer's instructions; the fluorescent intensity was read on a SpectraMax M2e microplate reader (Molecular Devices Inc.).
(§4) For the determination of IC50 values, cells were treated with a serial dilution (320 μM, 100 μM, 32 μM, 10 μM, 3.2 μM, and 0.32 μM) of cis- or trans-gnetin H for 48 hours. Cell viability was determined with AlamarBlue dye (Invitrogen) and the IC50 values were calculated using non-linear regression analysis.

[4] = system: BT20 cells (human breast carcinoma); test: Inhibition of cell proliferation, AlamarBlue fluorescent assay, BT20; assay type: cell-based; settings: for inhibition at 10 µM: BT-20, 10 uM, 48-hours treatment; for IC50: BT-20, 48 hours, AlamarBlue, cancer cell line
Method: as §1, §3, §4

[5] = Conversion testing under 12-watt fluorescent lamp, HPLC; assay type: physicochemical; settings: 6-hour treatment; for concentration of the compound after illumination: HPLC
Method: For stability testing, cis- and trans-gnetin H were dissolved with methanol to a concentration of 1 mg/ml. The stock solutions were sealed in a glass bottle and kept in the dark at room temperature for 6 months and then the purity of the two compounds was tested using the HPLC method previously described (He et al., J. Liq. Chromatog. Rel. Technol. 2013; 36:1708-1724). For conversion testing, cis- and trans-gnetin H were individually illuminated with a 12-watt fluorescent lamp for 2, 4 and 6 hours, and the compounds were identified using HPLC.

[6] = system: malignant cells (A549, BT20, MCF-7, U2OS); test: IC50 determination, panel of malignant cell lines; assay type: cell-based, human
Method: as §1, §2

[7] = system: HL-60 (human leukemia) cells; settings: Kang et al. 2003, cited from earlier work
[8] = system: L1210 (mouse leukemia) cells; settings: Ha et al. 2009; cited from earlier work

Row | Compound | IC50 [1] [µM] | less increase in size of large tumors compared to the untreated control ([2]; large tumors) [%] | food intake or body weight of treated animals ([2]; nude mice) | less increase in size of small tumors compared to the untreated control ([2]; small tumors) [%] | inhibitory effects on normal HPL1A cells [3] | IC50 [3] [µM] | inhibition at 10 µM [4] [%] | IC50 [4] [µM] | concentration of the compound after illumination [5] [%] | more antiproliferation activity than previously reported ([6]; A549, BT20, MCF-7 and U2OS versus literature) | IC50 ([6]; Homo sapiens, 48 h, bone, breast and lung cancer cell lines, 48 hours, read-out: IC50 values in malignant cells (range over cell lines)) [µM] | portion converted to its cis-isomer [5] | increase of the sub-G1 population ([7]; HL-60 cells, 25 μM) [%] | IC50 ([7]; read-out: IC50, viability of HL-60 cells) [µM] | IC50 [8] [µM]
1 | Oc1ccc(/C=C\c2c3c(cc4c2[C@H](c2cc(O)cc(O)c2)[C@@H](c2ccc(O)cc2)O4)O[C@H](c2ccc(O)cc2)[C@H]3c2cc(O)cc(O)c2)cc1 [cis-gnetin H] | 9.32 | 68 | no apparent alteration on food intake or body weight | 39 | no such obvious inhibitory effects | 91 | ~99 | 2.15 | 88.9 |  |  |  |  |  | 
2 | Oc1ccc(/C=C/c2c3c(cc4c2[C@H](c2cc(O)cc(O)c2)[C@@H](c2ccc(O)cc2)O4)O[C@H](c2ccc(O)cc2)[C@H]3c2cc(O)cc(O)c2)cc1 [trans-gnetin H] | 3.1 |  |  |  | no such obvious inhibitory effects | 72 | ~99 | 1.35 | 6.2 | 2-9 fold | 1.35 to 10 | about 86% | 11 | 25 | 40.1
